Assay results as given in publication PMC12106329, “Chronic alcohol intake disrupts cytochrome P450 enzyme activity in alcoholic fatty liver disease: insights into metabolic alterations and therapeutic targets” (Frontiers in Chemistry, 2025).
Where “and” joins values, the source holds several entries; their conditions need not be identical. Equal entries are not always repeated. Where two headings read alike, the source gives them in different places.

Key:
[1] = AM group, oral ethanol 12 weeks; vs NC and SC groups
Experimental: (§1) Sixty healthy male Sprague-Dawley rats (SD-2024-RAT-045, Beijing Vital River Laboratory Animal Technology Co., Ltd., Beijing, China) weighing 200–250 g were selected. The animals were housed under a 12-h light/dark cycle at a constant laboratory temperature of 22°C ± 2°C and relative humidity of 50% ± 10%, with access to ample food and water. Sixty rats were randomly assigned to four groups (fifteen rats per group): the normal control group (NC group), the sucrose solution group (SC group), the ethanol intake group (AM group), and the ethanol intake group with simultaneous overexpression of CYP2C11 and CYP2B6 (AM + oe-CYP2C11&CYP2B6 group). The NC group received an equal volume of normal saline daily via oral gavage. The SC group was given an 18% sucrose solution (w/v) and an equal volume of normal saline instead of ethanol. The AM group started with a 5% ethanol concentration, increasing by 5% weekly to 40% while maintaining a constant 18% sucrose concentration (v/v). The plasmid vector for gene overexpression, pCMV6-AC-GFP (LM-2069, LMAI Bio, Shanghai, China), was used to construct CYP2C11 and CYP2B6 plasmids, which were developed by Sangon Biotech (Shanghai, China). After constructing the AM rat model, overexpression plasmids were transfected into lentiviruses via tail vein injection ([Liu et al., 2020]). The lentivirus injections (5 × 10^7 IU/rat) were administered twice, with a minimum interval of 2 days between injections, starting on day 7 after the initiation of sucrose treatment ([Ma et al., 2020]).
(§2) The daily ethanol and sucrose feeding volumes were weight-adjusted for the rats, approximately 20 mL per kilogram of body weight, and continued for 12 weeks. Weekly monitoring of rat weight, observation and recording of appetite, general health status including activity level, fur condition, and behavioral changes were documented. Daily feeding amounts were meticulously recorded to accurately adjust ethanol and sucrose solution volumes. After 12 weeks, the rats were euthanized by cervical dislocation following unconsciousness induced by carbon dioxide (CO₂) inhalation. Liver tissues were dissected and stored at −80°C for subsequent histological and molecular biology analyses. Blood samples were collected, and serum was separated by centrifugation (3,000 rpm, 4°C, 15 min) and stored at −80°C for future use.
Serum-related indicators were measured using commercial assay kits (BioSino Biotechnology and Science Inc., Beijing, China) following the manufacturer’s protocols. Specifically, serum samples, substrates, and buffer solutions were prepared according to the kit instructions. The reaction mixture was incubated at 37°C for 20 min, and absorbance was measured at 340 nm to record changes. Concentrations were calculated based on a standard curve ([Li et al., 2018]).

[2] = for AUC0-∞ / Cmax / T1/2 / T1/2 el / Tmax / MRT / AUC0-L∞: oral, serum, final dosing after 12 weeks, mean; for AUC0-L∞: time zero to last measurable concentration
Experimental: Rats were administered orally with the same doses of normal saline and ethanol in the NC, SC, and AM groups, following the same method. After 12 weeks, blood samples were collected from the rats at specified time points (0.5, 1, 2, 4, 6, 8, and 12 h post-dosing) during the final dosing. The blood samples were centrifuged to separate serum and then stored at −80°C for further use.
Utilizing liquid chromatography-mass spectrometry (LC-MS) technology, the concentrations of ethanol and its metabolites in serum samples were analyzed. Analyze the pharmacokinetic parameters of the drug, such as the maximum plasma concentration (Cmax), the mean residence time (MRT) of ethanol in the body, and the bioavailability of ethanol. Data processing was conducted using specialized software XCMS, involving peak identification, integration, and normalization. Multivariate statistical analyses were performed on metabolite data to reveal metabolic differences between groups, such as principal component analysis (PCA) and orthogonal partial least squares discriminant analysis (OPLS-DA). Metabolites were annotated and compared with known databases (HMDB, METLIN) to confirm their identities. Differences in pharmacokinetic parameters among the NC, SC, and AM groups were compared to evaluate the effects of alcohol exposure and CYP450 enzymes, aiming to identify metabolite variances.

[3] = test system: CYP2D6 mRNA; conditions: AM group, oral ethanol 12 weeks; compared to NC and SC groups
Experimental: as §1, §2
(§3) Total RNA was extracted from rat liver tissue using TRIzol reagent (15596026, Invitrogen, United States). cDNA was synthesized using the cDNA synthesis kit (RR036A, Takara, Japan). Specific gene expression was detected by combining the PCR master mix (206143, Qiagen, United States) with the Pikoreal 96 real-time PCR system (QPCR-96X, Thermo Scientific, United States). Quantitative PCR analysis was performed for CYP450 enzyme-related genes with the endogenous gene β-actin as a reference, and the relative mRNA expression levels were quantified by calculating the 2^−ΔΔCt values. All experiments were repeated three times.

[4] = test system: CYP1A2 mRNA; conditions: AM group, oral ethanol 12 weeks; compared to NC and SC groups
Experimental: as §1, §2, §3

[5] = test system: CYP3A1 mRNA; conditions: AM group, oral ethanol 12 weeks; compared to NC and SC groups
Experimental: as §1, §2, §3

[6] = test system: CYP2B6 mRNA; conditions: AM group, oral ethanol 12 weeks; compared to NC and SC groups
Experimental: as §1, §2, §3

[7] = test system: CYP2C11 mRNA; conditions: AM group, oral ethanol 12 weeks; compared to NC and SC groups
Experimental: as §1, §2, §3

[8] = test system: CYP2E1 mRNA; conditions: AM group, oral ethanol 12 weeks; compared to NC and SC groups
Experimental: as §1, §2, §3

[9] = test system: rat liver; conditions: AM group: oral ethanol 5% rising 5% weekly to 40% in 18% sucrose, about 20 mL/kg daily, 12 weeks; vs NC and SC groups
Experimental: as §1, with “The plasmid vector for gene overexpression, pCMV6-AC-GFP (LM-2069, LMAI Bio, Shanghai, China), was used to construct CYP2C11 and CYP2B6 plasmids, which were developed by Sangon Biotech (Shanghai, China). After constructing the AM rat model, overexpression plasmids were transfected into lentiviruses via tail vein injection ([Liu et al., 2020]). The lentivirus injections (5 × 10^7 IU/rat) were administered twice, with a minimum interval of 2 days between injections, starting on day 7 after the initiation of sucrose treatment ([Ma et al., 2020]).” left out
The daily ethanol and sucrose feeding volumes were weight-adjusted for the rats, approximately 20 mL per kilogram of body weight, and continued for 12 weeks. […] Daily feeding amounts were meticulously recorded to accurately adjust ethanol and sucrose solution volumes. […]

[10] = test system: CYP3A1; conditions: AM group, oral ethanol 12 weeks; compared to NC and SC groups
Experimental: as §1, §2
(§4) Rat liver microsomes were isolated using differential centrifugation. Each sample was mixed with 50 mM Tris-HCl buffer, homogenized, and then centrifuged at 10,000 × g for 30 min. The supernatant was centrifuged at 100,000 × g for 1 h using a high-speed centrifuge (Himac CP100WX, Hitachi, Japan).
(§5) The activities of CYP1A2, CYP2B6, CYP2C19, CYP2C11, CYP2E1, CYP2D6, and CYP3A1 were quantitatively determined using specific labeled substrates and an NADPH generation system containing 100 mM potassium phosphate buffer, 1 mM NADP (N1630, Sigma, United States), 10 mmol/L G-6-P (G7877, Sigma, United States), 0.1 U/mL G-6-PDH (G8529, Sigma, United States), and 5 mM MgCl2. The NADPH generation system was added to microsomes (total protein concentration of 1 mg/mL) with a total volume of 190 μL. Each reaction system was supplemented with 10 μL of substrate.

[11] = test system: CYP2D6; conditions: AM group, oral ethanol 12 weeks; compared to NC and SC groups
Experimental: as §1, §2, §4, §5

[12] = test system: CYP2E1; conditions: AM group, oral ethanol 12 weeks; compared to NC and SC groups
Experimental: as §1, §2, §4, §5

[13] = test system: CYP1A2; conditions: AM group, oral ethanol 12 weeks; compared to NC and SC groups
Experimental: as §1, §2, §4, §5

[14] = test system: CYP2C11; conditions: AM group, oral ethanol 12 weeks
Experimental: as §1, §2, §4, §5

[15] = test system: CYP2B6; conditions: AM group, oral ethanol 12 weeks
Experimental: as §1, §2, §4, §5

[16] = test system: ALDH2; conditions: AM group, oral ethanol 12 weeks
Experimental: as §1, §2
(§6) Liver samples were lysed using RIPA lysis buffer (P0013B, Beyotime, China). The total protein concentration was evaluated using the BCA protein assay kit (AR0146, Doctor’s Scientific Inc., China). SDS-PAGE was employed to separate total proteins, followed by protein transfer onto pre-wetted PVDF membranes with methanol (IPVH00010, Millipore Corp, United States). Non-specific protein blocking was carried out at room temperature for 3 h using TBST solution (BL315B, Boist, China) containing 5% milk. The target proteins were probed with primary antibodies overnight on […], followed by three washes with TBST/Tween 20 (0.075%) for 15 min each and subsequent incubation with labeled secondary antibodies for 1 h before washing. Protein visualization was performed using the Millipore Immobilon Western Chemiluminescent HRP substrate. The primary antibodies used in the experiments were polyclonal rabbit anti-human CYP450CYP1A2, 2B6, 2C11, 2C19, 2E1, 2D6, 3A1 (bs-20720R, Bioss, China) at a 1:300 dilution. The secondary antibodies, goat anti-mouse or anti-rabbit horseradish peroxidase conjugates, were diluted at 1:10,000 in TBST containing 5% milk. β-actin served as the loading control. The experiments were repeated three times.

[17] = test system: CYP3A1; conditions: AM group, oral ethanol 12 weeks; compared to NC and SC groups; remark: listed apart in the source
Experimental: as §1, §2, §6

[18] = test system: CYP2D6; conditions: AM group, oral ethanol 12 weeks
Experimental: as §1, §2, §6

[19] = test system: CYP2E1; conditions: AM group, oral ethanol 12 weeks
Experimental: as §1, §2, §6

[20] = test system: P-gp; conditions: AM group, oral ethanol 12 weeks
Experimental: as §1, §2, §6

[21] = test system: CYP2C19; conditions: AM group, oral ethanol 12 weeks
Experimental: as §1, §2, §6

[22] = test system: CYP1A2; conditions: AM group, oral ethanol 12 weeks
Experimental: as §1, §2, §6

[23] = test system: CYP2C11; conditions: AM group, oral ethanol 12 weeks; remark: listed apart in the source
Experimental: as §1, §2, §6

[24] = test system: CYP2B6; conditions: AM group, oral ethanol 12 weeks; remark: listed apart in the source
Experimental: as §1, §2, §6

[25] = test system: ROS; conditions: AM group, oral ethanol 12 weeks; vs NC and SC groups
Experimental: Reactive oxygen species (ROS) levels were detected using the fluorescent dye 2′,7′-dichlorodihydrofluorescein diacetate (DCF) (HY-D0940, Abcam, United Kingdom). […] Endothelial cells (2 × 10^4 cells) were seeded on coverslips in six-well plates and cultured overnight. The cells were treated with H2O2 (200 μM) the next day for 24 h. After treatment, the coverslips were washed with ice-cold Hank’s Balanced Salt Solution (HBSS) (H8264, Sigma Aldrich, Shanghai, China) and incubated with 100 μM DCFDA at 37°C for 30 min. After washing, the coverslips were mounted onto slides and imaged using a multiphoton confocal microscope (A1R, Nikon, United States) with a ×100 objective. Images were analyzed using Nikon Imaging Software NIS-Element.

[26] = SC group (sucrose solution) rats
[27] = rat serum after long-term alcohol exposure
[28] = liver, β-actin loading control, single replicates

## CCO [ethanol]
[1]
  MDA level: significantly increased
  SOD level: significantly decreased
  serum ALT level: significantly increased
  serum AST level: significantly increased
  total cholesterol (TC) level: significantly increased
  triglyceride (TG) level: significantly increased
[2]; AM group (alcohol intake) rats
  AUC0-∞: 29120 ng·h/mL
  Cmax: 2375 ng/mL
  T1/2: 2.88 h
  T1/2 el: 17.04 h
  Tmax: 4.76 h
  AUC0-L∞: 27820 ng·h/mL
[2]; AM group (alcohol intake) rats, p < 0.01 vs NC
  MRT: 24.48 h
[2]; NC group (normal control) rats
  AUC0-∞: 22400 ng·h/mL
  Cmax: 1900 ng/mL
  MRT: 20.4 h
  T1/2: 2.4 h
  T1/2 el: 14.2 h
  Tmax: 4.75 h
  AUC0-L∞: 21400 ng·h/mL
[2]; NC, SC and AM groups, p > 0.05
  Tmax, difference among the groups: no significant difference
[2]; [26]
  AUC0-∞: 21300 ng·h/mL
  Cmax: 1890 ng/mL
  MRT: 19.8 h
  T1/2: 2.35 h
  T1/2 el: 13.5 h
  Tmax: 4.68 h
[2]; [27]
  AUC0-L∞, AM group vs other groups: significantly increased
  AUC0-∞, AM group vs other groups: significantly increased
[2]; rat, after long-term alcohol exposure
  clearance, AM group vs other groups: lower
[3]
  CYP2D6 mRNA level in liver: significantly higher
[4]
  CYP1A2 mRNA level in liver: significantly higher
[5]
  CYP3A1 mRNA level in liver: significantly higher
[6]
  CYP2B6 mRNA level in liver: significantly lower
[7]
  CYP2C11 mRNA level in liver: significantly lower
[8]
  CYP2E1 mRNA level in liver: significantly higher
[9]
  liver histology (H&E): macrovesicular steatosis
[10]
  CYP3A1 enzyme activity in liver microsomes: significantly increased
[11]
  CYP2D6 enzyme activity in liver microsomes: significantly increased
[12]
  CYP2E1 enzyme activity in liver microsomes: significantly increased
[13]
  CYP1A2 enzyme activity in liver microsomes: significantly increased
[14]
  CYP2C11 enzyme activity in liver microsomes: notable decreases
[15]
  CYP2B6 enzyme activity in liver microsomes: notable decreases
[16]; compared with NC and SC groups
  ALDH2 protein level, change: increased
[16]; [28]
  ALDH2 Relative protein expression: 1.34 and 1.48 and 1.49
[17]
  CYP3A1 protein expression, change: higher
[18]; compared to NC and SC groups
  CYP2D6 protein expression, change: higher
[18]; [28]
  CYP2D6 Relative protein expression: 3.37 and 3.45 and 2.83
[19]; compared to NC and SC groups
  CYP2E1 protein expression, change: higher
[19]; [28]
  CYP2E1 Relative protein expression: 1.88 and 2.01 and 1.78
[20]
  P-gp protein expression, change: significant increase
[20]; [28]
  P-gp Relative protein expression: 1.61 and 1.33 and 1.52
[21]; across all groups
  CYP2C19 protein expression, change: no significant difference
[21]; [28]
  CYP2C19 Relative protein expression: 1.22 and 1.39 and 1.27
[22]; compared to NC and SC groups
  CYP1A2 protein expression, change: higher
[22]; [28]
  CYPIA2 Relative protein expression: 1.50 and 1.52 and 1.65
[23]; compared to NC and SC groups
  CYP2C11 protein level, change: significantly lower
[23]; [28]
  CYP2C11 Relative protein expression: 0.76 and 0.74 and 0.78
[24]; compared to NC and SC groups
  CYP2B6 protein level, change: significantly lower
[24]; [28]
  CYP2B6 Relative protein expression: 0.28 and 0.3 and 0.29
[25]
  intracellular ROS level: significant increase
